Measurements published in patent publication US20250296959A1, “B7-H3 TARGETING PEPTIDES AND CONSTRUCTS THEREOF” (Mariana Oncology Inc., priority 2024, published 2025).
Where two headings read alike, the source gives them in different places. Starred links: 1 amine or outer side, 2 acyl side, 3 side chain; linkers in the order of their positions; H or OH if unused. Positions of bridges follow the written chain, without caps; N, C: chain ends. Non-standard residues stand in square brackets, D forms with d. Residues, ends and D or L forms follow the SMILES beside them. Groups on a side chain read outwards from the residue. *: point of attachment. Ala(1-CH2CO2H-4-piperidyl) = N[C@@H](CC1CCN(CC(=O)O)CC1)C(=O)O; Ala(piperidin-4-yl) = O=C([C@H](CC1CCN([*:3])CC1)N[*:1])[*:2]; DOTA = O=C(O)CN1CCN(CC(=O)O)CCN(CC(=O)*)CCN(CC(=O)O)CC1; Trp(5-F) = N[C@@H](Cc1c[nH]c2ccc(F)cc12)C(=O)O; X1 = C[C@@H](c1ccccc1)[C@H](N[*:1])C(=O)[*:2]; Ala(4-THP) = N[C@@H](CC1CCOCC1)C(=O)O; Val(3-OH) = CC(C)(O)[C@H](N)C(=O)O; Chg = N[C@H](C(=O)O)C1CCCCC1; Tle = CC(C)(C)[C@H](N)C(=O)O; hLeu = CC(C)CC[C@H](N)C(=O)O; Sar = CNCC(=O)O

Tests used:
human 4lg B7-H3 = target: T1, human 4lg B7-H3 (Homo sapiens, UniProt Q5ZPR3); assay: Affinity determination by surface plasmon resonance (SPR) to 4Ig B7-H3; conditions: 4Ig B7-H3
T1 sequence (Q5ZPR3 29-534): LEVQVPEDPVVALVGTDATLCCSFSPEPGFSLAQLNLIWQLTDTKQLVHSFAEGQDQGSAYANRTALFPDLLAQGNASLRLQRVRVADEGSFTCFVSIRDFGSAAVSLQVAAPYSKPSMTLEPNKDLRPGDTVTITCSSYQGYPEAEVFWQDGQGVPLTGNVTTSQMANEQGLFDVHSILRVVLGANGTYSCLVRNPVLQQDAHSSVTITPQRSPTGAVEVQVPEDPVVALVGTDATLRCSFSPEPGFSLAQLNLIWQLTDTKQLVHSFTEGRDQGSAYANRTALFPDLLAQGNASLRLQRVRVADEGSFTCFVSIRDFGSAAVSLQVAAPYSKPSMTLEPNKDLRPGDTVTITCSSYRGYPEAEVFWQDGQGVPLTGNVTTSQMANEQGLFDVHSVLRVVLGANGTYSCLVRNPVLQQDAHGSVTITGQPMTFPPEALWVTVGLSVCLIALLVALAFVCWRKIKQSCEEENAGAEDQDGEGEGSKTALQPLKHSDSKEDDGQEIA

Calu-6 cell line [1] = assay: Cell associated (bound) fraction of [177Lu]Lu-labeled peptide in Calu-6 cells; type: cell-based, Human; conditions: 1 hour, 37° C.
Summary of the method: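 Peptide conjugate was labelled with [177Lu]LuCl3 in ammonium acetate pH ~5 at 80 °C for 17-20 min, with purity checked by RP-HPLC. Calu-6 suspensions (5 million cells/mL in 1% PBSA) were incubated with 0.8 μCi for 1 h at 37 °C. Cell pellets were gamma-counted after two cold PBS/BSA washes, giving the bound fraction against the unbound supernatant plus washes.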

Calu-6 cell line [2] = assay: Net internalization of [177Lu]Lu-labeled peptide in Calu-6 cells; type: cell-based, Human; conditions: 1 hour, 37° C., glycine pH 2.5 acid wash
Summary of the method: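 Peptide conjugate labeled with [177Lu]LuCl3 at pH ~5, 80 °C, 17–20 min, and purity checked by RP-HPLC. B7-H3-expressing human Calu-6 lung cancer cells at 5 million cells/mL in 1% PBSA. Internalized fraction: counts left after two 3 min 50 mM glycine pH 2.5 washes and NaOH lysis, gamma counted against bound fraction.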

[3] = read-out: SPR KD—37° C., 37° C. flow cell temperature
[4] = read-out: SPR KD—25° C., 25° C. flow cell temperature

Row | Compound | Kd (human 4lg B7-H3; SPR KD—37° C., 37° C. flow cell temperature) [nM] | % cell associated fraction (Calu-6 cell line [1]) | % net internalization (Calu-6 cell line [2]) | Kd (human 4lg B7-H3; [3]) [nM] | Kd (human 4lg B7-H3; [4]) [nM]
1 | CC(=O)N[C@@H](CCC(C)C)C(=O)N[C@@H](Cc1ccc(O)cc1)C(=O)N[C@H]1CSSC[C@@H](C(=O)N[C@@H](Cc2c[nH]c3ccc(F)cc23)C(=O)N[C@@H](Cc2ccccc2)C(=O)N[C@H](C(=O)N[C@H](CCCCNC(=O)CN2CCN(CC(=O)O)CCN(CC(=O)O)CCN(CC(=O)O)CC2)C(N)=O)C(C)(C)O)NC(=O)[C@H](Cc2ccc(O)cc2)NC(=O)[C@H](C(C)C)NC(=O)[C@H](CC(=O)O)NC(=O)[C@H](CC2CCOCC2)NC(=O)[C@H](CCCCN)NC(=O)CNC(=O)[C@H](C(C)(C)C)NC1=O [compound 366, Ac-hLeu-Y-C-Tbg-G-K-ThpA-D-V-Y-C-5FW-F-hydroxyVal-dLys(DOTA)-CONH2] (Ac-[hLeu]YC[Tle]GK[Ala(4-THP)]DVYC[Trp(5-F)]F[Val(3-OH)][dK](DOTA)-NH2; disulfide 3-11) | < 1 | B (25<%≤50) | A (%≤25) |  | 
2 | CC(=O)N[C@@H](CCC(C)C)C(=O)N[C@@H](Cc1ccc(O)cc1)C(=O)N[C@H]1CSSC[C@@H](C(=O)N[C@@H](Cc2c[nH]c3ccc(F)cc23)C(=O)N[C@@H](Cc2ccccc2)C(=O)N[C@H](C(=O)N[C@H](CCCCNC(=O)CN2CCN(CC(=O)O)CCN(CC(=O)O)CCN(CC(=O)O)CC2)C(=O)O)C(C)(C)O)NC(=O)[C@H](Cc2ccc(O)cc2)NC(=O)[C@H](C(C)C)NC(=O)[C@H](CC(=O)O)NC(=O)[C@H](CC2CCOCC2)NC(=O)[C@H](CC2CCNCC2)NC(=O)CNC(=O)[C@H](C(C)(C)C)NC1=O [compound 340, Ac-hLeu-Y-C-Tbg-G-PipAla-ThpA-D-V-Y-C-5FW-F-hydroxyVal-dLys(DOTA)-COOH] (Ac-[hLeu]YC[Tle]G[Ala(piperidin-4-yl)][Ala(4-THP)]DVYC[Trp(5-F)]F[Val(3-OH)][dK](DOTA)-OH; disulfide 3-11) |  | C (%>50) | A (%≤25) | < 1 | 
3 | CC(=O)N[C@@H](CCC(C)C)C(=O)N[C@@H](Cc1ccc(O)cc1)C(=O)N[C@H]1CSSC[C@@H](C(=O)N[C@@H](Cc2c[nH]c3ccc(F)cc23)C(=O)N[C@@H](Cc2ccccc2)C(=O)N[C@H](C(=O)N[C@H](CCCCNC(=O)CN2CCN(CC(=O)O)CCN(CC(=O)O)CCN(CC(=O)O)CC2)C(N)=O)[C@@H](C)O)NC(=O)[C@H](Cc2ccc(O)cc2)NC(=O)[C@H](C(C)C)NC(=O)[C@H](CC(=O)O)NC(=O)[C@H](Cc2ccc(O)cc2)NC(=O)[C@H](CCCCN)NC(=O)CN(C)C(=O)[C@H](C(C)C)NC1=O [compound 77, Ac-hLeu-Y-C-V-Sar-K-Y-D-V-Y-C-5FW-F-Thr-dLys(DOTA)-CONH2] (Ac-[hLeu]YCV[Sar]KYDVYC[Trp(5-F)]FT[dK](DOTA)-NH2; disulfide 3-11) |  | C (%>50) | A (%≤25) |  | 1 to 10
4 | CC(=O)N[C@@H](CCC(C)C)C(=O)N[C@@H](Cc1ccc(O)cc1)C(=O)N[C@H]1CSSC[C@@H](C(=O)N[C@@H](Cc2c[nH]c3ccc(F)cc23)C(=O)N[C@@H](Cc2ccccc2)C(=O)N[C@H](C(=O)N[C@H](CCCCNC(=O)CN2CCN(CC(=O)O)CCN(CC(=O)O)CCN(CC(=O)O)CC2)C(N)=O)[C@@H](C)O)NC(=O)[C@H](Cc2ccc(O)cc2)NC(=O)[C@H](C(C)C)NC(=O)[C@H](CC(=O)O)NC(=O)[C@H](Cc2ccc(O)cc2)NC(=O)[C@H](CCCCN)NC(=O)CNC(=O)[C@H](C(C)(C)C)NC1=O [compound 76, Ac-hLeu-Y-C-Tbg-G-K-Y-D-V-Y-C-5FW-F-Thr-dLys(DOTA)-CONH2] (Ac-[hLeu]YC[Tle]GKYDVYC[Trp(5-F)]FT[dK](DOTA)-NH2; disulfide 3-11) |  | C (%>50) | A (%≤25) |  | < 1
5 | CC(=O)N[C@@H](CCC(C)C)C(=O)N[C@@H](Cc1ccc(O)cc1)C(=O)N[C@H]1CSSC[C@@H](C(=O)N[C@@H](Cc2c[nH]c3ccc(F)cc23)C(=O)N[C@@H](Cc2ccccc2)C(=O)N[C@H](C(=O)N[C@H](CCCCNC(=O)CN2CCN(CC(=O)O)CCN(CC(=O)O)CCN(CC(=O)O)CC2)C(=O)O)C(C)(C)O)NC(=O)[C@H](Cc2ccc(O)cc2)NC(=O)[C@H](C(C)C)NC(=O)[C@H](CC(=O)O)NC(=O)[C@H](CC2CCOCC2)NC(=O)[C@H](CC2CCN(CC(=O)O)CC2)NC(=O)CNC(=O)[C@H](C(C)(C)C)NC1=O [compound 339, Ac-hLeu-Y-C-Tbg-G-[Pip(CH2CO2H)Ala]-ThpA-D-V-Y-C-5FW-F-hydroxyVal-dLys(DOTA)-COOH] (Ac-[hLeu]YC[Tle]G[Ala(1-CH2CO2H-4-piperidyl)][Ala(4-THP)]DVYC[Trp(5-F)]F[Val(3-OH)][dK](DOTA)-OH; disulfide 3-11) |  | C (%>50) | B (25<%≤50) | < 1 | 
6 | CC(=O)N[C@@H](CCC(C)C)C(=O)N[C@@H](Cc1ccc(O)cc1)C(=O)N[C@H]1CSSC[C@@H](C(=O)N[C@@H](Cc2c[nH]c3ccc(F)cc23)C(=O)N[C@H](C(=O)N[C@H](C(=O)N[C@H](CCCCNC(=O)CN2CCN(CC(=O)O)CCN(CC(=O)O)CCN(CC(=O)O)CC2)C(=O)O)C(C)(C)O)[C@@H](C)c2ccccc2)NC(=O)[C@H](Cc2ccc(O)cc2)NC(=O)[C@H](C(C)C)NC(=O)[C@H](CC(=O)O)NC(=O)[C@H](CC2CCOCC2)NC(=O)[C@H](CC2CCN(CC(=O)O)CC2)NC(=O)CNC(=O)[C@H](C(C)(C)C)NC1=O [compound 497, Ac-hLeu-Y-C-Tbg-G-Pip(CH2COOH)Ala-ThpA-D-V-Y-C-5FW-[(2S, 3S)beta-Me-Phe]-hydroxyVal-dLys(DOTA)-COOH] (Ac-[hLeu]YC[Tle]G[Ala(1-CH2CO2H-4-piperidyl)][Ala(4-THP)]DVYC[Trp(5-F)][X1][Val(3-OH)][dK](DOTA)-OH; disulfide 3-11) |  | C (%>50) | A (%≤25) | < 1 | 
7 | CC(=O)N[C@@H](CCC(C)C)C(=O)N[C@@H](Cc1ccc(O)cc1)C(=O)N[C@H]1CSSC[C@@H](C(=O)N[C@@H](Cc2c[nH]c3ccc(F)cc23)C(=O)N[C@@H](Cc2ccccc2)C(=O)N[C@H](C(=O)N[C@H](CCCCNC(=O)[C@H](CCC(=O)O)NC(=O)CN2CCN(CC(=O)O)CCN(CC(=O)O)CCN(CC(=O)O)CC2)C(=O)O)C(C)(C)O)NC(=O)[C@H](Cc2ccc(O)cc2)NC(=O)[C@H](C(C)C)NC(=O)[C@H](CC(=O)O)NC(=O)[C@H](CC2CCOCC2)NC(=O)[C@H](CC2CCNCC2)NC(=O)CNC(=O)[C@H](C(C)(C)C)NC1=O [compound 428, Ac-hLeu-Y-C-Tbg-G-PipAla-ThpA-D-V-Y-C-5FW-F-hydroxyVal-dLys(Glu-DOTA)-COOH] (Ac-[hLeu]YC[Tle]G[Ala(piperidin-4-yl)][Ala(4-THP)]DVYC[Trp(5-F)]F[Val(3-OH)][dK]([Glu-DOTA])-OH; disulfide 3-11) |  | B (25<%≤50) | A (%≤25) | < 1 | 
8 | CC(=O)N[C@@H](CCC(C)C)C(=O)N[C@@H](Cc1ccc(O)cc1)C(=O)N[C@H]1CSSC[C@@H](C(=O)N[C@@H](Cc2c[nH]c3ccc(F)cc23)C(=O)N[C@@H](Cc2ccccc2)C(=O)N[C@H](C(=O)N[C@H](CCCCNC(=O)CN2CCN(CC(=O)O)CCN(CC(=O)O)CCN(CC(=O)O)CC2)C(N)=O)[C@@H](C)O)NC(=O)[C@H](Cc2ccc(O)cc2)NC(=O)[C@H](C2CCCCC2)NC(=O)[C@H](CC(=O)O)NC(=O)[C@H](Cc2ccc(O)cc2)NC(=O)[C@H](CCCCN)NC(=O)CNC(=O)[C@H](C(C)C)NC1=O [compound 215, Ac-hLeu-Y-C-V-G-K-Y-D-ChG-Y-C-5FW-F-Thr-dLys(DOTA)-CONH2] (Ac-[hLeu]YCVGKYD[Chg]YC[Trp(5-F)]FT[dK](DOTA)-NH2; disulfide 3-11) |  | C (%>50) | A (%≤25) |  | < 1
